# Laboratory results taken from patent US11389424B2, “Methods and compositions for treating chemotherapy-induced diarrhea” (NAPO PHARMACEUTICALS, INC., priority 2017, dated 2022).
# Read-outs that look alike come from different tables or passages of the source.
# Columns and labels:
# [1] = test system: recurrent, cutaneous mast cell tumors; conditions: cited from earlier work
# [2] = 9-month toxicity study (WIL-288022), oral (capsule) administration of enteric-coated crofelemer tablets; parameters: species or system beagle dogs; conditions: dog, in vivo
# Description: The dose for this study was based on data obtained from a pilot study that assessed the clinical effectiveness of crofelemer (SP-303) in alleviating clinical signs associated with secretory diarrhea in dogs (CANA-001) and the wide margin of safety established in 30-day (WIL-288006) and 9-month (WIL-288022) toxicity studies. Chronic safety of crofelemer in dogs was studied in a 9-month study during which tablets were administered in capsules once daily, 7 days per week, for 273 or 274 days to three groups of beagle dogs. Dosage levels were 50, 175 and 600 mg/kg/day, plus a concurrent control group. Based on the results of this study, the no-observed-adverse-effect level (NOAEL) for oral (capsule) administration of enteric-coated crofelemer tablets to dogs for 273 or 274 consecutive days was 50 mg/kg/day. […] Thus, the no effect level is estimated to be between 50 and 175 mg/kg/day.
molecule,measurement,setting,value
"Cc1[nH]c(/C=C2\C(=O)Nc3ccc(F)cc32)c(C)c1C(=O)NCCN1CCCC1.O=P(O)(O)O [toceranib phosphate, Toceranib phosphate]",objective response (primary effectiveness endpoint),"[1]; end of the six-week masked phase, vs placebo 8%, p<0.001",37%
same,all grade diarrhea,[1]; masked phase,46%
same,grade 3-4 diarrhea,[1]; masked phase,7%
same,any grade diarrhea,[1]; masked plus open label phases,59%
same,grade 3-4 diarrhea,[1]; masked plus open label phases,8%
Crofelemer,primary adverse effect at the higher dosages,[2],gastrointestinal irritation
